Results published in ChEMBL document CHEMBL1201862, “PubChem BioAssay data set” (2004).
Activity calls are given as the source filed them.

Tests used:
[1] = target: X-box-binding protein 1 (Homo sapiens, UniProt P17861); format: functional, Cricetulus griseus;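 note: confirmatory dose-response counter-screen serving a CHOP assay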
[2] = alpha-synuclein stem-loop luciferase translation blockers – H4 neuroglioma cells, luminescence, confirmation (AID 1988); format: functional, cell-based
[3] = luciferase reporter signal suppression in cells – H4 neuroglioma cells, luminescence, dose response (AID 1990); format: functional, cell-based
[4] = target: T1, Cysteine protease ATG4B (Homo sapiens, UniProt Q9Y4P1); format: functional;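 note: Fluorescence-based dose-response confirmation assay measuring inhibition of ATG4B activity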
T1 sequence (Q9Y4P1 whole entry): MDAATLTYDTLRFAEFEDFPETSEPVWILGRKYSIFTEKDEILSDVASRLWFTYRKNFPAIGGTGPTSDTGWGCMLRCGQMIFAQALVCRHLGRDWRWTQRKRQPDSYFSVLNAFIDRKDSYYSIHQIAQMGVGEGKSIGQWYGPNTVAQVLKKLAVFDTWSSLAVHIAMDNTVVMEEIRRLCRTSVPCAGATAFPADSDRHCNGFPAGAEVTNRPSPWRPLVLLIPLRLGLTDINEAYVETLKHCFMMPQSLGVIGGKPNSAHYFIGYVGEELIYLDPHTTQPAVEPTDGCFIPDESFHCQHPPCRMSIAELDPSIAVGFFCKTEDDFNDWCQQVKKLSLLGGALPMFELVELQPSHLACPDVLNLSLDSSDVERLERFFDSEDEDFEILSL

[5] = target: G-protein coupled receptor 55 (Homo sapiens, UniProt Q9Y2T6); test: selective activators of receptor GPR55 – imaging, U2OS cells, beta-arrestin-GFP redistribution, primary screen (AID 1961); format: functional
[6] = target: Phospholipase A2 (Homo sapiens, UniProt P04054); format: functional;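 note: confirmatory dose-response counterscreen on phospholipase A2, testing hits that came from an ultra-high-throughput screen for ATG4B inhibitors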
[7] = target: Cytochrome P450 2C9 (Homo sapiens, UniProt P11712)
[8] = target: Sphingosine 1-phosphate receptor 4 (Homo sapiens, UniProt O95977); test: potency of S1P4 activators – cell-based, fluorescence, synthesized compounds, late-stage follow-up (AID 463107); format: functional
[9] = target: Protein Rev (Human immunodeficiency virus type 1 group M subtype B (isolate HXB2)(HIV-1), UniProt P04618); test: blockers of HIV Rev/RRE RNA complex – biochemical, fluorescence polarization, HIV-1, dose response (AID 434976); parameters: species or system Human immunodeficiency virus 1
[10] = target: Female germline-specific tumor suppressor gld-1 (Caenorhabditis elegans, UniProt Q17339); test: blockers of GLD-1/TGE RNA complex formation – biochemical, fluorescence polarization, C. elegans, dose response (AID 2802);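 note: fluorescence polarization of labeled TGE RNA bound by purified gld-1 protein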
Female germline-specific tumor suppressor gld-1, sequence (Q17339 whole entry): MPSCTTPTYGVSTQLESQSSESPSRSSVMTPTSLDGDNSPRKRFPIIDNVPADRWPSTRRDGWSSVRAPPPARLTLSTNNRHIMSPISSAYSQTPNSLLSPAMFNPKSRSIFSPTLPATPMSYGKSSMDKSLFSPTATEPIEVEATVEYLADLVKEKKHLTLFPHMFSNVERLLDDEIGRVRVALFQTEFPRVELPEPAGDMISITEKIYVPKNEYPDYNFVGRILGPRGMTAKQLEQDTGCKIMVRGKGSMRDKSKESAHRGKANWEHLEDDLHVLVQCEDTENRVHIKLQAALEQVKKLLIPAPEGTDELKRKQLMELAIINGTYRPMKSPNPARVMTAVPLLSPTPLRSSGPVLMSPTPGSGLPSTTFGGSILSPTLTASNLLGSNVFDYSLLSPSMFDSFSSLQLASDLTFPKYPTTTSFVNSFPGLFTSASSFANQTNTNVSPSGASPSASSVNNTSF

Cytochrome P450 2C9, sequence (P11712 whole entry): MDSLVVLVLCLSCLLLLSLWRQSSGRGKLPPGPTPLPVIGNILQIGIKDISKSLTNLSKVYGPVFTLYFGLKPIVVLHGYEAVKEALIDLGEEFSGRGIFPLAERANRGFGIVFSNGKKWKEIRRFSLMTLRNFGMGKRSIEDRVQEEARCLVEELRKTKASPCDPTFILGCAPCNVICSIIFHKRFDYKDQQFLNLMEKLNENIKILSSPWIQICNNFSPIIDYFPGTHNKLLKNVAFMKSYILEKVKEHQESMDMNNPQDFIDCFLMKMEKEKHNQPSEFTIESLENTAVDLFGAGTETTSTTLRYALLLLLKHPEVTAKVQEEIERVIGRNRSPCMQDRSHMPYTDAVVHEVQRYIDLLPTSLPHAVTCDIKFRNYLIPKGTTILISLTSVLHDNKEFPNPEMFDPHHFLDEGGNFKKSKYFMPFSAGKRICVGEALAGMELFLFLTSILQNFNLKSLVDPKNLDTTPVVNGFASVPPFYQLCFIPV
Sphingosine 1-phosphate receptor 4, sequence (O95977 whole entry): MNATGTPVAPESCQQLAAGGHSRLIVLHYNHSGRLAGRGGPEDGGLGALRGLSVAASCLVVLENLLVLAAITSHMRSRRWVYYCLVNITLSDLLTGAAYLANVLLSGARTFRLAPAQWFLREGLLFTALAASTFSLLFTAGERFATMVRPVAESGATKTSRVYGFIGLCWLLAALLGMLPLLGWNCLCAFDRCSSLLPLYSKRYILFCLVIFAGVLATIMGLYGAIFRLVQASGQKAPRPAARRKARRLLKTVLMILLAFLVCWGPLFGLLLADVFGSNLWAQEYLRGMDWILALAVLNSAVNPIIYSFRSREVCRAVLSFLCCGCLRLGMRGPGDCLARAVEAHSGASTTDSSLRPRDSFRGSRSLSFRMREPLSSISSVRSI
Protein Rev, sequence (P04618 whole entry): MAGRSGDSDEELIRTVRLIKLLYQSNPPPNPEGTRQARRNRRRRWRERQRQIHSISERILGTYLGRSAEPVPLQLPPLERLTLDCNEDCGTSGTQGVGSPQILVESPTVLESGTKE
G-protein coupled receptor 55, sequence (Q9Y2T6 whole entry): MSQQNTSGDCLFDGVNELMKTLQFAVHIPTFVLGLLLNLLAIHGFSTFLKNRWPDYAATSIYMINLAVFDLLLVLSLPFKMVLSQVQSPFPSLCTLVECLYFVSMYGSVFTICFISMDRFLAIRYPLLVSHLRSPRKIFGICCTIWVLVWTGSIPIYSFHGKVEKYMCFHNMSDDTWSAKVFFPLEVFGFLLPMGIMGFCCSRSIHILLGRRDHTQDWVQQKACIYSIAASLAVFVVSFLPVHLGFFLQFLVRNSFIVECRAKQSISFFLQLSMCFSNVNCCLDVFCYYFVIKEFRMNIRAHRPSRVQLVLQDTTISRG
X-box-binding protein 1, sequence (P17861 whole entry): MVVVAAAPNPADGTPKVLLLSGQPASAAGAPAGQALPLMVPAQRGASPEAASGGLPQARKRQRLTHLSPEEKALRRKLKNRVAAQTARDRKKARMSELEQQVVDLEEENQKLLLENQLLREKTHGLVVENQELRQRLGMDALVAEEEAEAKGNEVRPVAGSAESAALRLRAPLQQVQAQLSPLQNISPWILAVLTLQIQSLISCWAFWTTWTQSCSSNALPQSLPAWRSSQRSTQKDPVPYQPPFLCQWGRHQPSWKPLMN
Phospholipase A2, sequence (P04054 whole entry): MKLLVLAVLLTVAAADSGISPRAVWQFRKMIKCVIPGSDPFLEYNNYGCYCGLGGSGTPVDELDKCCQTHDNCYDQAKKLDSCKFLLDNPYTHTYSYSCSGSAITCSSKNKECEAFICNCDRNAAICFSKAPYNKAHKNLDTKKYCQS

**Q.** For `CC(C)Cn1c(=O)c2ccccc2n2c(SCC(=O)N3c4ccccc4CC3C)nnc12` (stereo not given), which “Absolute IC50 (XBP1)” value [1] is on record?
**A.** Its value is 10 µM.

**Q.** What about the EC50 [2] of the same compound?
**A.** Its EC50 is > 120 µM (not active).

**Q.** And the EC50 [3]?
**A.** Its EC50 is 36 µM (active).

**Q.** Which IC50 [4] does the source give for `COc1cc(/C=C2/C(=N)N3C=CSC3=NC2=O)ccc1OCCCOc1c(C)cccc1C` here?
**A.** Its IC50 is 7.86 µM (active).

**Q.** What about the EC50 [5] of the same compound?
**A.** Its EC50 is 4.7 µM (active).

**Q.** And the IC50 [6]?
**A.** Its IC50 is 3.11 µM (active).

**Q.** What about the AC50 [7] of the same compound?
**A.** The AC50 was 2 µM (inconclusive).

**Q.** With `Cc1ccc(OCCCOc2ccc(C)nc2[N+](=O)[O-])c([N+](=O)[O-])n1` as the compound, how does the EC50 [8] read?
**A.** Its EC50 is > 50 µM (inactive).

**Q.** Which results are given for `c1cc2c3c(cccc3c1)C(N1CCOCC1)=N2`?
**A.** IC50 [9]: 29.2 µM (not active); IC50 [10]: 8.44 µM (active)
